The structures appear in SMILES notation. pIC50: −log10 of the molar value. Several values for one entry are separate records, joined by “and”; a condition that tells them apart may be missing. Identical values can stand only once.

A word on the pIC50: it is the IC50 on a negative log10 scale, so that one unit is a factor of ten. The low end stands for a large IC50, the high end for a small IC50.

For the test, the target named is Replicase polyprotein 1ab (Severe acute respiratory syndrome coronavirus 2, UniProt P0DTD1). The test can be described thus: Functional biochemical assay to identify treatments for viral infectious disease that targets SARS-COV-2 nsp3 macrodomain, whereby the mechanism of action displaces an ADP-Ribose modified peptide from the binding site. Utilizing a time-resolved fluorescence method to measure binding by reading the emitted fluorescence intensity in two wavelengths.
In the case of `CC(C)[C@@H](Nc1ncnc2[nH]c(-c3cnn(CC(N)=O)c3)cc12)c1ccc2c(c1)OCCO2`, the pIC50 was 6.42 and 6.44 and 6.61 and 6.59. Turning to `CC(C)(C)[C@@H](Nc1ncnc2[nH]ccc12)c1ccc2c(c1)OCCO2`, the pIC50 was 5.91 and 5.98. The value for `CNc1ccc([C@@H](CC(=O)O)NC(=O)c2ncnc3[nH]ccc23)cc1` was 4.54 and 4.46; that for `Cn1c(C(=O)O)c(NC(=O)c2ccc(NC(=O)NC3CC3)cc2)c2cccnc21` was under 4.00; that for `c1nc(Nc2ccc3c(c2)OCO3)c2cc[nH]c2n1` was under 4.00.

`CNC(=O)c1ccc([C@@H](CC(=O)O)NC(=O)c2ncnc3[nH]ccc23)cc1`: the pIC50 is 5.04 and 4.87. For the molecule `CC(C)[C@@H](Nc1ncnc2[nH]c3cc(F)ccc3c12)c1ccc2c(c1)OCCO2`, the pIC50 was 5.07 and 5.00. The figure for `COCc1noc(C)c1-c1cc2c(N[C@@H](c3ccc4c(c3)OCCO4)C(C)C)ncnc2[nH]1` is under 4.00. For `C[C@@H](Nc1ncnc2[nH]ccc12)[C@@H]1CCOC1`, the negative logarithm of the IC50 (pIC50) was under 4.00. The value for `CC(C)[C@@H]1C[C@H](Nc2[nH]cnc3nccc2-3)CCO1` was under 4.00; that for `CC(C)[C@@H]1C[C@@H](Nc2ncnc3[nH]ccc23)CCO1` was under 4.00. The figure for `COc1cccc([C@@H](CC(=O)O)NC(=O)c2ncnc3[nH]ccc23)c1` is 4.79 and 4.66; for `O=C(O)C[C@@H](NC(=O)c1ncnc2[nH]ccc12)c1ccc(NCC2=NO[C@@H]3COC[C@H]23)cc1` it is 5.14 and 5.08; for `COc1ccc(CN(c2ncnc3[nH]ccc23)C(C)C)cc1OC` it is under 4.00. In the case of `CS(=O)(=O)Nc1cccc([C@@H](CC(=O)O)NC(=O)c2ncnc3[nH]ccc23)c1`, the pIC50 was 4.30 and 4.41 and 4.40.

In turn, `CC(=O)Nc1ccc([C@@H](CC(=O)O)NC(=O)c2ncnc3[nH]ccc23)cc1` gave a pIC50 of 4.84. The value for `O=C(Nc1ccc(C(=O)Nc2c(C(=O)O)sc3ccncc23)cc1)NC1CC1` was under 4.00.

Turning to `c1nc(N[C@@H](c2ccc3c(c2)OCCO3)C2CCC2)c2cc[nH]c2n1`, the pIC50 was 5.28 and 5.19. The figure for `CC(C)[C@@H](Nc1ncnc2[nH]ccc12)c1cnn(C)c1` is 5.41 and 5.50; for `N=C(N)C[C@@H](NC(=O)c1ncnc2[nH]ccc12)c1ccc(Br)cc1` it is under 4.00; for `CNC(=N)C[C@@H](NC(=O)c1ncnc2[nH]ccc12)c1ccc(Br)cc1` it is under 4.00. The figure for `C[C@@H](Nc1ncnc2[nH]ccc12)[C@@H]1CCCCO1` is under 4.00; for `Cc1nc2nc[nH]c(NC(=O)c3ccc(NC(=O)NC4CC4)nc3)c-2c1C` it is under 4.00; for `O=C(O)C[C@@H](NC(=O)c1ncnc2[nH]ccc12)c1ccc(Nc2nnc(C3CC3)o2)cc1` it is 5.42 and 5.34. Take `COc1ccc(Nc2ncnc3[nH]ccc23)cc1OC`: the pIC50 was under 4.00. The value for `O=C(Nc1ccc(C(=O)Nc2c(C(=O)O)oc3cc(Br)ccc23)cc1)NC1CC1` was under 4.00; that for `CC(C)Cc1ccc2c(NC(=O)c3ccc(NC(=O)NC4CC4)cc3)c(C(=O)O)sc2n1` was under 4.00. `COc1ccc([C@@H](Nc2ncnc3[nH]ccc23)C(C)C)cc1OC`: the pIC50 was under 4.00. The figure for `FC(F)[C@@H](Nc1ncnc2[nH]ccc12)c1ccc2c(c1)OCCO2` is 4.80 and 4.64; for `O[C@@H]1CCCC[C@@H]1Nc1ncnc2[nH]ccc12` it is < 4.00 and 4.02. The figure for `O=C(Nc1cccc2c(C(=O)Nc3cc4c(cc3C(=O)O)OCCO4)c[nH]c12)NC1CC1` is under 4.00; for `CC(C)[C@@H](Nc1ncc2c(n1)CCCC2)c1ccc2c(c1)OCCO2` it is under 4.00; for `CS(=O)(=O)Nc1ccc([C@@H](CC(=O)O)NC(=O)c2ncnc3[nH]ccc23)cc1` it is 4.92 and 5.00. `c1nc(N[C@@H](c2ccc3c(c2)OCCO3)C2CC2)c2cn[nH]c2n1`: the pIC50 is 4.75 and 4.70. The figure for `O=C(O)C[C@@H](NC(=O)c1ccc(NC(=O)NC2CC2)cc1)c1cccnc1` is 4.11 and 4.17; for `c1nc(N2CCC[C@@H]2c2ccc3c(c2)OCCO3)c2cc[nH]c2n1` it is under 4.00.

Turning to `O=C(N[C@@H](Cc1nn[nH]n1)c1ccc(Br)cc1)c1ncnc2[nH]ccc12`, the pIC50 was 5.72 and 5.67. As to `CNc1cccc([C@@H](CC(=O)O)NC(=O)c2ncnc3[nH]ccc23)c1`, the pIC50 was 4.18 and 4.59. Consider `CC(C)[C@@H](Nc1ncnc2[nH]c(-c3cc[nH]n3)cc12)c1ccc2c(c1)OCCO2`, for which the pIC50 was 5.74 and 5.73.

In the case of `O=C(O)C[C@H](NC(=O)c1ccc(NC(=O)NC2CC2)cc1)c1cccnc1`, the pIC50 was 4.30 and 4.23. The value for `Cc1[nH]c2ncnc(NC(=O)c3ccc(-n4cccc4)nc3)c2c1C` was under 4.00; that for `COc1ccc([C@@H](Nc2ncnc3[nH]ccc23)C(C)C)cc1` was 5.20 and 5.09; that for `O=C(Nc1cccc2c(C(=O)Nc3cc4c(cc3CO)OCCO4)c[nH]c12)NC1CC1` was under 4.00. For `CC(=O)Nc1cccc([C@@H](CC(=O)O)NC(=O)c2ncnc3[nH]ccc23)c1`, the pIC50 was 4.59 and < 4.91 and 4.68. Regarding `O=C(O)C[C@@H](NC(=O)c1ccc(NC(=O)NC2CC2)cc1)c1cccc(O)c1`, the pIC50 was 5.04 and 5.06.

For `c1nc(N[C@@H](C2CC2)[C@@H]2CCCOC2)c2cc[nH]c2n1`, the pIC50 is under 4.00.

Turning to `O=C(O)C[C@@H](NC(=O)c1ccc(NC(=O)NC2CC2)cc1)C1CCOCC1`, the pIC50 was under 4.00.

Take `O=C(O)C[C@@H](NC(=O)c1c[nH]c2ncncc12)c1ccc(NCC2=NO[C@@H]3COC[C@H]23)cc1`: the pIC50 is under 4.00. On to `Cc1nnc(Nc2ccc([C@@H](CC(=O)O)NC(=O)c3ncnc4[nH]ccc34)cc2)o1`, for which the pIC50 is 4.91 and 5.00.

In the case of `O=C(O)[C@@H](Nc1ncnc2[nH]ccc12)c1ccc2c(c1)OCCO2`, the negative-log IC50 (pIC50) was 5.03 and 5.10. In the case of `COc1ccc([C@@H](CC(=O)O)NC(=O)c2ccc(NC(=O)NC3CC3)cc2)cc1`, the pIC50 was 4.24 and 4.42.

On to `COc1cccc([C@@H](Nc2ncnc3[nH]ccc23)C(C)C)c1`, for which the pIC50 was 4.59 and 4.40.

Turning to `O[C@H]1CCCC[C@@H]1Nc1ncnc2[nH]ccc12`, the pIC50 is 4.26 and 4.19. The value for `O=C(Nc1ccc2c(C(=O)N[C@@H]3c4ccccc4C[C@@H]3C(=O)O)cnn2c1)NC1CC1` was 4.20 and 4.31. For `C[C@@H](Nc1ncnc2[nH]ccc12)[C@@H]1CCS(=O)(=O)C1`, the pIC50 was under 4.00. With `c1ccc2c(c1)OCC[C@@H]2Nc1ncnc2[nH]ccc12`, the pIC50 is under 4.00. Molecule `O=C(Nc1cccc2c(C(=O)Nc3ccccc3C(=O)O)c[nH]c12)NC1CC1` had a pIC50 of 4.70. Consider `O=C(O)C[C@@H](NC(=O)c1ccc(NC(=O)NC2CC2)cc1)c1cccc(F)c1`, for which the pIC50 is 4.56 and 4.49. With `NC(=O)[C@@H](NC(=O)c1ncnc2[nH]ccc12)c1ccc(Br)cc1`, the pIC50 was under 4.00. With `COc1ccc([C@H](CC(=O)O)NC(=O)c2ccc(NC(=O)NC3CC3)cc2)cc1`, the pIC50 is 4.27 and 4.29 and 4.42. Take `O=C(O)C[C@@H](NC(=O)c1ncnc2[nH]ccc12)c1ccc(Nc2nnco2)cc1`: the pIC50 was 5.18 and 5.26. `c1nc(N[C@@H](c2ccc3c(c2)OCCO3)C2CCCC2)c2cc[nH]c2n1` gave a pIC50 of 5.65. The figure for `c1ccc2c(N[C@@H](c3ccc4c(c3)OCCO4)C3CC3)ncnc2c1` is under 4.00; for `N#CC[C@@H](NC(=O)c1ncnc2[nH]ccc12)c1ccc(Br)cc1` it is under 4.00; for `O=C(O)C[C@@H](NC(=O)c1ncnc2[nH]ccc12)c1ccc(NCc2ccno2)cc1` it is 4.95 and 4.88.

The values above are taken from ChEMBL document CHEMBL5441456, “ASAP - SARS-CoV-2 nsp3 macrodomain dose response” (2024).
